Data from ChEMBL document CHEMBL1909046, “DrugMatrix in vitro pharmacology data”.

Tests used:
[1] = biological target: Kappa-type opioid receptor (Homo sapiens, UniProt P41145); assay: DRUGMATRIX: Opiate kappa (OP2, KOP) radioligand binding (ligand: [3H] Diprenorphine); type: cell membranes, HEK293, Membrane; conditions: Not Active = under 50% inhibition at 10 µM
[2] = biological target: T1, Adenosine receptor A3 (Homo sapiens, UniProt P0DMS8); type: cell membranes, CHO-K1, Membrane; conditions: for Ki: read-out: Ki;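 on all read-outs here: radioligand binding assay with AB-MECA serving as the labeled ligand; in other assays of this panel Not Active means under 50% inhibition at 10 µM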
T1 sequence (P0DMS8 whole entry): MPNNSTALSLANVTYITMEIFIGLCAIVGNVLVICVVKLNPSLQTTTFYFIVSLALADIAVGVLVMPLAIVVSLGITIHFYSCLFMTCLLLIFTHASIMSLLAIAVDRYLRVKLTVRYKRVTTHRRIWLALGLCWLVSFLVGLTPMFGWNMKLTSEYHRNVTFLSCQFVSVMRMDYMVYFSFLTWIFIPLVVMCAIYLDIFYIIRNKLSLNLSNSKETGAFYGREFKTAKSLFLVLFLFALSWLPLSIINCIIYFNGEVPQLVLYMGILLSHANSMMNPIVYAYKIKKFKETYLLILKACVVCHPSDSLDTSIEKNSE

[3] = biological target: Substance-P receptor (Homo sapiens, UniProt P25103); type: cell membranes, CHO, Membrane; conditions: cho; further: in other assays of this panel Not Active means under 50% inhibition at 10 µM
Sequence of Substance-P receptor (P25103 whole entry): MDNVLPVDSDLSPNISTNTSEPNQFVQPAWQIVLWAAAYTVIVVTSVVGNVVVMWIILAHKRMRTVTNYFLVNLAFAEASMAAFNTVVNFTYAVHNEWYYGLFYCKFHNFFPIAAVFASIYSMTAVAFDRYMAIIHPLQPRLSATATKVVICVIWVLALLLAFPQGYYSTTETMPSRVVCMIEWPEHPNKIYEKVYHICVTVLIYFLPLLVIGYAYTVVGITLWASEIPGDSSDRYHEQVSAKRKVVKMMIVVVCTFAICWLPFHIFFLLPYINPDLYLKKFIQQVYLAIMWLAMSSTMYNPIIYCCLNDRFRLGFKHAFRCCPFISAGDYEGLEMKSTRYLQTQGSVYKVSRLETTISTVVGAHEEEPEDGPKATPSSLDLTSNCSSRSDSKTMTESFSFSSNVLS

[4] = biological target: T2, Alpha-1B adrenergic receptor (Rattus norvegicus, UniProt P15823); assay: DRUGMATRIX: Alpha-1B adrenergic receptor radioligand binding (ligand: prazosin); type: cell membranes, Wistar, Liver, Membrane; conditions: Not Active = under 50% inhibition at 10 µM
T2 sequence (P15823 whole entry): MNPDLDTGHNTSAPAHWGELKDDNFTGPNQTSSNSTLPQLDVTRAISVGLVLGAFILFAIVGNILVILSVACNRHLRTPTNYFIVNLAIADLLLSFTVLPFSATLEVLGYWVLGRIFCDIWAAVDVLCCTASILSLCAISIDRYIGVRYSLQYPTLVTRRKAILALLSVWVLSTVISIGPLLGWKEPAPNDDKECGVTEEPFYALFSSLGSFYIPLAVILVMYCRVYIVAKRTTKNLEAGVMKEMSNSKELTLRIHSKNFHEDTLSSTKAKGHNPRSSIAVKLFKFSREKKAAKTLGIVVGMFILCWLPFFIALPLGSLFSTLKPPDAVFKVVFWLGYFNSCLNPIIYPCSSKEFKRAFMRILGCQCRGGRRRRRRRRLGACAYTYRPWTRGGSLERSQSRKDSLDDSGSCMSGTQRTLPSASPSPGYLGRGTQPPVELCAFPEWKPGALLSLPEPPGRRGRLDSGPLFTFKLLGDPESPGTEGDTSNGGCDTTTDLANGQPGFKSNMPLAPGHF

[5] = biological target: Cytochrome P450 2D6 (Homo sapiens, UniProt P10635); conditions: bti-tn-5b1-4; further: in other assays of this panel Not Active means under 50% inhibition at 10 µM
Sequence of Cytochrome P450 2D6 (P10635 whole entry): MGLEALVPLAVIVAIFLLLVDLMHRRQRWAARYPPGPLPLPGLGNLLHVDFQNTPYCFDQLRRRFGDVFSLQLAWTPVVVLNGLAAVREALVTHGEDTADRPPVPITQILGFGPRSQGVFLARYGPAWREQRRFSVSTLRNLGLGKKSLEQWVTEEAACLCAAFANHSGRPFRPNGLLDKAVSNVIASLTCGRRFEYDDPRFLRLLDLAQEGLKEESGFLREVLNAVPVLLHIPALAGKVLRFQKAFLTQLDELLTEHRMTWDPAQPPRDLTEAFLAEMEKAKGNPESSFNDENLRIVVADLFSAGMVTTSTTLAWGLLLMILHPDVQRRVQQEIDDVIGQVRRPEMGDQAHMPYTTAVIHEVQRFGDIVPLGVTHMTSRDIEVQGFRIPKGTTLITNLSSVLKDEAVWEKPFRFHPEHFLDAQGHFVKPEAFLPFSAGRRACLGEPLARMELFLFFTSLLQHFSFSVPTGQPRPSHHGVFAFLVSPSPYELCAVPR

[6] = DRUGMATRIX: GABAA, Muscimol, Central radioligand binding (ligand: [3H] Muscimol); type: cell membranes, Rattus norvegicus, Wistar, Brain, Membrane; conditions: Not Active = under 50% inhibition at 10 µM

Sequence of Kappa-type opioid receptor (P41145 whole entry): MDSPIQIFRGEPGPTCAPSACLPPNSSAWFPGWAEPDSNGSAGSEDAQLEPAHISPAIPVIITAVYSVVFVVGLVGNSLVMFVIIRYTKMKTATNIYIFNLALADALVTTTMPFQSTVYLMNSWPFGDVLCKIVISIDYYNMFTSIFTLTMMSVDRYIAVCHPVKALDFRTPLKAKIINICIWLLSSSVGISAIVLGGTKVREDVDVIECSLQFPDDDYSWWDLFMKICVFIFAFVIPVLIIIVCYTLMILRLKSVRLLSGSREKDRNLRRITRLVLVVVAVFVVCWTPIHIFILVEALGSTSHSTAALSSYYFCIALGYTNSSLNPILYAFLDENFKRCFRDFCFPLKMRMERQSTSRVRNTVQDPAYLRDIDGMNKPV

SMILES	IC50 ([1]; hek293)	IC50 ([2]; cho-k1)	IC50 [3]	IC50 [4]	IC50 [5]	Ki [5]	IC50 [6]	Ki [6]	IC50 ([2]; read-out: IC50) [nM]	Ki [2] [nM]	IC50 ([4]; read-out: IC50) [µM]	Ki ([4]; read-out: Ki) [µM]	Ki [1] [nM]	IC50 ([1]; read-out: IC50) [nM]
CCN(CC)CCOCCC1=CCC2CC1C2(C)C (configuration not stated) [MYRTECAINE]	Not Active	Not Active	Not Active	Not Active	Not Active	Not Active	Not Active	Not Active	–	–	–	–	–	–
COC(=O)Nc1nc2ccc([S+]([O-])c3ccccc3)cc2[nH]1 (configuration not stated) [OXFENDAZOLE]	Not Active	Not Active	Not Active	Not Active	Not Active	Not Active	Not Active	Not Active	–	–	–	–	–	–
Oc1c(Cl)cc(Cl)c(Cl)c1Cc1c(O)c(Cl)cc(Cl)c1Cl [HEXACHLOROPHENE]	Not Active	–	Not Active	Not Active	Not Active	Not Active	Not Active	Not Active	639	361	–	–	–	–
C[C@]12C=CC(=O)C=C1CC[C@@H]1[C@@H]2[C@@H](O)C[C@@]2(C)[C@H]1CC[C@]2(O)C(=O)CO [PREDNISOLONE]	Not Active	Not Active	Not Active	Not Active	Not Active	Not Active	Not Active	Not Active	–	–	–	–	–	–
O=C1O[C@H]([C@@H](O)CO)C(O)=C1O [ASCORBIC ACID]	Not Active	Not Active	Not Active	Not Active	Not Active	Not Active	Not Active	Not Active	–	–	–	–	–	–
COc1ccc(C2C(=O)c3ccccc3C2=O)cc1 [ANISINDIONE]	Not Active	Not Active	Not Active	Not Active	Not Active	Not Active	Not Active	Not Active	–	–	–	–	–	–
Brc1c(NC2=NCCN2)ccc2nccnc12 [BRIMONIDINE]	Not Active	Not Active	Not Active	Not Active	Not Active	Not Active	Not Active	Not Active	–	–	–	–	–	–
COc1ccc(C(=O)N2CCCC2=O)cc1	Not Active	Not Active	Not Active	Not Active	Not Active	Not Active	Not Active	Not Active	–	–	–	–	–	–
O=C(c1ccccc1C(F)(F)F)N1CCC(Cc2ccccc2)CC1	Not Active	Not Active	Not Active	Not Active	Not Active	Not Active	Not Active	Not Active	–	–	–	–	–	–
CCC1(C)CC(=O)NC1=O (configuration not stated) [ETHOSUXIMIDE]	Not Active	Not Active	Not Active	Not Active	Not Active	Not Active	Not Active	Not Active	–	–	–	–	–	–
CCC(=O)O[C@]1(C(=O)CCl)[C@@H](C)C[C@H]2[C@@H]3CCC4=CC(=O)C=C[C@]4(C)[C@@]3(F)[C@@H](O)C[C@@]21C [CLOBETASOL PROPIONATE]	Not Active	Not Active	Not Active	Not Active	Not Active	Not Active	Not Active	Not Active	–	–	–	–	–	–
CCCOc1ccc(C(=O)OCCN(CC)CC)cc1N [PROPARACAINE]	Not Active	Not Active	Not Active	Not Active	Not Active	Not Active	Not Active	Not Active	–	–	–	–	–	–
CC(=O)[C@H]1[C@H](C#N)C[C@H]2[C@@H]3CC=C4C[C@@H](O)CC[C@]4(C)[C@H]3CC[C@@]21C [PREGNENOLONE CARBONITRILE]	Not Active	Not Active	Not Active	Not Active	Not Active	Not Active	Not Active	Not Active	–	–	–	–	–	–
CN(C)CC[C@@H](c1ccc(Cl)cc1)c1ccccn1 [DEXCHLORPHENIRAMINE]	Not Active	Not Active	Not Active	–	Not Active	Not Active	Not Active	Not Active	–	–	15.6	8.61	–	–
CC[C@H](C)[C@H]1O[C@]2(C=C[C@@H]1C)C[C@@H]1C[C@@H](C/C=C(\C)[C@@H](O[C@H]3C[C@H](OC)[C@@H](O[C@H]4C[C@H](OC)[C@@H](O)[C@H](C)O4)[C@H](C)O3)[C@@H](C)/C=C/C=C3\CO[C@@H]4[C@H](O)C(C)=C[C@@H](C(=O)O1)[C@]34O)O2.CO[C@H]1C[C@H](O[C@H]2[C@H](C)O[C@@H](O[C@@H]3/C(C)=C/C[C@@H]4C[C@@H](C[C@]5(C=C[C@H](C)[C@@H](C(C)C)O5)O4)OC(=O)[C@@H]4C=C(C)[C@@H](O)[C@H]5OC/C(=C\C=C\[C@@H]3C)[C@]54O)C[C@@H]2OC)O[C@@H](C)[C@@H]1O [ABAMECTIN]	Not Active	–	Not Active	Not Active	Not Active	Not Active	Not Active	Not Active	870	492	–	–	–	–
CN(C)[C@@H]1C(O)=C(C(N)=O)C(=O)[C@@]2(O)C(O)=C3C(=O)c4c(O)ccc(Cl)c4[C@@](C)(O)[C@H]3C[C@@H]12 [CHLORTETRACYCLINE]	Not Active	Not Active	Not Active	Not Active	Not Active	Not Active	Not Active	Not Active	–	–	–	–	–	–
Nc1ccn([C@@H]2O[C@H](CO)[C@@H](O)[C@@H]2O)c(=O)n1 [CYTARABINE]	Not Active	Not Active	Not Active	Not Active	Not Active	Not Active	Not Active	Not Active	–	–	–	–	–	–
CC(=O)Oc1ccc(C(c2ccc(OC(C)=O)cc2)c2ccccn2)cc1 [BISACODYL]	–	Not Active	Not Active	Not Active	Not Active	Not Active	Not Active	Not Active	–	–	–	–	975	2440
CC(=O)O[C@H]1C(=O)[C@@]2(C)[C@H]([C@H](OC(=O)c3ccccc3)[C@]3(O)C[C@H](OC(=O)[C@H](O)[C@@H](NC(=O)c4ccccc4)c4ccccc4)C(C)=C1C3(C)C)[C@]1(OC(C)=O)CO[C@@H]1C[C@@H]2O [PACLITAXEL]	Not Active	Not Active	Not Active	Not Active	Not Active	Not Active	Not Active	Not Active	–	–	–	–	–	–
Nc1ccn([C@@H]2O[C@H](CO)[C@@H](O)C2(F)F)c(=O)n1 [GEMCITABINE]	Not Active	Not Active	Not Active	Not Active	Not Active	Not Active	Not Active	Not Active	–	–	–	–	–	–
CCC1(CCC(C)C)C(=O)NC(=O)NC1=O [AMOBARBITAL]	Not Active	Not Active	Not Active	Not Active	Not Active	Not Active	Not Active	Not Active	–	–	–	–	–	–
O=C(O)c1cccnc1Nc1cccc(C(F)(F)F)c1 [NIFLUMIC ACID]	Not Active	Not Active	Not Active	Not Active	Not Active	Not Active	Not Active	Not Active	–	–	–	–	–	–
Cn1c(=O)c2[nH]cnc2n(C)c1=O.Cn1c(=O)c2[nH]cnc2n(C)c1=O.NCCN [AMINOPHYLLINE]	Not Active	Not Active	Not Active	Not Active	Not Active	Not Active	Not Active	Not Active	–	–	–	–	–	–
C=CCc1ccc(O)c(OC)c1 [EUGENOL]	Not Active	Not Active	Not Active	Not Active	Not Active	Not Active	Not Active	Not Active	–	–	–	–	–	–
COc1ccc2[nH]cc(CCNC(C)=O)c2c1 [MELATONIN]	Not Active	Not Active	Not Active	Not Active	Not Active	Not Active	Not Active	Not Active	–	–	–	–	–	–
N=C(N)NC(=O)Cc1c(Cl)cccc1Cl [GUANFACINE]	Not Active	Not Active	Not Active	Not Active	Not Active	Not Active	Not Active	Not Active	–	–	–	–	–	–
